Measured values: patent US6423711B1 (dated 2002)
Where a name gives a salt, the structure may show the parent alone.

Structure (SMILES)	melting point
Cl.NCCNC(=O)C1CCN(c2cc(-c3ccc(F)cc3)nc3ccsc23)CC1	115 to 118 °C (dec.)
Cl.O=C(NCCO)C1CCN(c2cc(-c3ccc(F)cc3)nc3ccsc23)CC1	198 to 200 °C (dec.)
NC(=O)C1CCN(c2cc(-c3ccc(F)cc3)nc3ccsc23)CC1 (as salt: hydrochloride)	> 303 °C (dec.)
CN(C)CCNC(=O)C1CCN(c2cc(-c3ccc(F)cc3)nc3ccsc23)CC1.Cl	180 to 182 °C (dec.)
COc1cccc(-c2cc(N3CCN(C(=O)c4ccncc4)CC3)c3sccc3n2)c1 (as salt: hydrochloride)	215 to 217 °C
c1ccc(-c2cc(N3CCOCC3)c3sccc3n2)cc1 (as salt: hydrochloride)	195 to 198 °C
CCNC(=O)C1CCN(c2cc(-c3ccc(F)cc3)nc3ccsc23)CC1.Cl	220 to 222 °C (dec.)
CCOc1ccc(-c2cc(N3CCC(C(N)=O)CC3)c3sccc3n2)cc1.Cl	211 to 213 °C (dec.)
CCOc1ccc(-c2cc(N3CCC(C(=O)NCc4ccccn4)CC3)c3sccc3n2)cc1.Cl	178 to 180 °C (dec.)
CCNC(=O)C1CCN(c2cc(-c3ccncc3)nc3ccsc23)CC1.Cl	> 227 °C (dec.)
O=C(NCc1ccncc1)C1CCN(c2cc(-c3ccccc3)nc3ccsc23)CC1 (as salt: hydrochloride)	176 to 178 °C (dec.)
Cl.O=C(NCc1ccc(F)cc1)C1CCN(c2cc(-c3ccccc3)nc3ccsc23)CC1	190 to 192 °C (dec.)
CNC(=O)N1CCN(c2cc(-c3ccccc3)nc3ccsc23)CC1.Cl	185 to 190 °C
NC(=O)C1CCN(c2cc(-c3ccc(F)cc3)nc3ccsc23)CC1	251 to 253 °C
CCNC(=O)N1CCN(c2cc(-c3cccc(OC)c3)nc3ccsc23)CC1.Cl	> 198 °C
CCNC(=O)C1CCN(c2cc(-c3cccc(OC)c3)nc3ccsc23)CC1.Cl	> 230 °C (dec.)
CCNC(=O)N1CCN(c2cc(-c3ccc(F)cc3)nc3ccsc23)CC1.Cl	> 147 °C (dec.)
COc1cccc(-c2cc(N3CCN(C(=O)c4ccc(F)cc4)CC3)c3sccc3n2)c1 (as salt: hydrochloride)	> 174 °C (dec.)
NC(=O)C1CCN(c2cc(-c3ccccc3F)nc3ccsc23)CC1	194 to 195 °C
COC(C)CNC(=O)C1CCN(c2cc(-c3ccc(F)cc3)nc3ccsc23)CC1 (centres unmarked) (as salt: hydrochloride)	179 to 180 °C (dec.)
CCNC(=O)N1CCN(c2cc(-c3ccccc3)nc3ccsc23)CC1.Cl	> 240 °C (dec.)
CCCNC(=O)C1CCN(c2cc(-c3ccc(F)cc3)nc3ccsc23)CC1.Cl	207 to 209 °C (dec.)
Cl.O=C(NCCCCl)N1CCN(c2cc(-c3ccc(F)cc3)nc3ccsc23)CC1	235 to 238 °C (dec.)

Results, then the compound that gave them:

melting point	Structure (SMILES)
157 to 160 °C (dec.)	COCCNC(=O)C1CCN(c2cc(-c3ccccc3)nc3ccsc23)CC1 (as salt: hydrochloride)
303 to 305 °C (dec.)	Cl.NC(=O)C1CCN(c2cc(-c3ccccc3)nc3ccsc23)CC1
236 to 238 °C (dec.)	Cl.O=C(NCc1cccc(F)c1)C1CCN(c2cc(-c3ccccc3)nc3ccsc23)CC1
270 to 272 °C (dec.)	CC(C)(C)NC(=O)C1CCN(c2cc(-c3ccccc3)nc3ccsc23)CC1.Cl
> 230 °C (dec.)	Cl.O=C(NCc1cccs1)C1CCN(c2cc(-c3ccccc3)nc3ccsc23)CC1
163 to 165 °C (dec.)	Cl.O=C(NCc1ccccc1)C1CCN(c2cc(-c3ccccc3)nc3ccsc23)CC1
176 to 178 °C (dec.)	Cl.NCCNC(=O)C1CCN(c2cc(-c3ccccc3)nc3ccsc23)CC1
> 210 °C (dec.)	O=C(NCC1CCCO1)C1CCN(c2cc(-c3ccccc3)nc3ccsc23)CC1 (centres unmarked) (as salt: hydrochloride)
199 to 201 °C (dec.)	Cl.O=C(NC1CC1)C1CCN(c2cc(-c3ccccc3)nc3ccsc23)CC1
> 150 °C (dec.)	CN(C)CCNC(=O)C1CCN(c2cc(-c3ccccc3)nc3ccsc23)CC1.Cl
170 to 172 °C (dec.)	CCCCNC(=O)C1CCN(c2cc(-c3ccccc3)nc3ccsc23)CC1.Cl
159 to 160 °C (dec.)	CCCNC(=O)C1CCN(c2cc(-c3ccccc3)nc3ccsc23)CC1.Cl
133 to 135 °C (dec.)	COc1cccc(-c2cc(N3CCC(C(N)=O)CC3)c3sccc3n2)c1.Cl
147 to 149 °C (dec.)	COCCCNC(=O)C1CCN(c2cc(-c3ccccc3)nc3ccsc23)CC1.Cl
> 95 °C (dec.)	CCNCCNC(=O)C1CCN(c2cc(-c3ccccc3)nc3ccsc23)CC1.Cl
177 to 178 °C (dec.)	Cc1ccc(CNC(=O)C2CCN(c3cc(-c4ccccc4)nc4ccsc34)CC2)cc1.Cl
> 260 °C (dec.)	CNC(=O)C1CCN(c2cc(-c3ccccc3)nc3ccsc23)CC1.Cl
> 210 °C (dec.)	CCNC(=O)C1CCN(c2cc(-c3ccccc3)nc3cccnc23)CC1.Cl
179 to 181 °C (dec.)	O=C(NC1CCCC1)C1CCN(c2cc(-c3ccccc3)nc3ccsc23)CC1 (as salt: hydrochloride)
> 220 °C (dec.)	Cl.O=C(NCCO)C1CCN(c2cc(-c3ccccc3)nc3ccsc23)CC1
> 220 °C (dec.)	COC(=O)C1CCN(c2cc(-c3ccccc3)nc3sccc23)CC1.Cl
